Test results from PMC8867149, “Phosphorylated and Phosphonated Low‐Complexity Protein Segments for Biomimetic Mineralization and Repair of Tooth Enamel” (Advanced Science, 2022).
Non-standard residues stand in square brackets, D forms with d. Residues, ends and D or L forms follow the SMILES beside them. pS = N[C@@H](COP(=O)(O)O)C(=O)O

Target: T1, Alkaline phosphatase, calf intestinal (ALP) (Bos taurus, UniProt P19111)
T1 construct: purchased New England BioLabs (printed 'NEW ENGLANK BioLabs Inc.') M0290
Test: Stability of phosphate/phosphonate group in the presence of ALP (HPLC)
Type: in vitro ADME
Conditions: 10 U mL^−1 ALP (calf intestinal), half an hour; peptide assemblies; HPLC read-out
Experimental: Figure 2 Characterization of LCPSs and their self‐assembly. a) FTIR characterization of different molecular structures among the LCPS peptides with a concentration of 10 mg mL^−1 LCPS assembly solution. b) Negatively stained TEM images showing the self‐assembled structures of LCPS‐OH, LCPS‐OP, and LCPS‐CP at pH 3.0, 5.0, 7.0, and 9.0. c) Zeta potential values of LCPSs at pH 7. The data are the means ± SD (n = 3 repeats per group). d) CD spectra of LCPS‐OH, LCPS‐OP, and LCPS‐CP assembly solutions (10 mg mL^−1) at pH 7. Self‐assembly of e) LCPS‐OP and f) LCPS‐CP after the addition of ALP. g) HPLC charts chromatograms of LCPS solutions with or without the addition of ALP. The LCPSs were incubated with 10 U mL^−1 ALP for half an hour.
The aggregated peptides were mineralized in the neutral condition directly as mentioned above, in the presence of 10 U mL^−1 ALP (calf‐intestinal). After assembling, 10 µL of the peptide assembly solution was diluted with equal volume of ddH2O. Then, 100 µL of the 1.35 × 10^−3 M CaCl2 solution containing 10 U mL^−1 ALP was added into the peptide assembly solution, and the resultant mixed solution was vibrated for 1 h to ensure the binding of calcium ions with the peptide aggregates. Next, 100 µL of the 0.81 × 10^−3 M K2HPO4 solution containing 10 U mL^−1 ALP was added dropwise for about 1 h while vibrating. […]

T1 sequence (P19111 20-533): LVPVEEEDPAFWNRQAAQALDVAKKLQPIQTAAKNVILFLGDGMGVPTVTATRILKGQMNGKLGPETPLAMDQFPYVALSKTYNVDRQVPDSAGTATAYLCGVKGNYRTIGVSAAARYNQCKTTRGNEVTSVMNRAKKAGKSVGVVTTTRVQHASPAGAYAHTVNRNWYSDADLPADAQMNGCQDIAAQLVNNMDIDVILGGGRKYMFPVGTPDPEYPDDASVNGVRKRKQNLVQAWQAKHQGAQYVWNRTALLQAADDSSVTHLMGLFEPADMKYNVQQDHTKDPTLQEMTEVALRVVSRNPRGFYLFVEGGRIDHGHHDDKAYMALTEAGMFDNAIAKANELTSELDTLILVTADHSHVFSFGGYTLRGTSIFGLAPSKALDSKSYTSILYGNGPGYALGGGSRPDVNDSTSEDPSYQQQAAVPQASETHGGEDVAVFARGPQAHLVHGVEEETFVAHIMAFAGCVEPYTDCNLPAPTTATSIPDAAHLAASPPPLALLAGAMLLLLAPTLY

N[C@@H](CO)C(=O)N[C@@H](Cc1ccc(O)cc1)C(=O)N[C@@H](COP(=O)(O)O)C(=O)NCC(=O)N[C@@H](Cc1ccc(O)cc1)C(=O)N[C@@H](CO)C(=O)O [LCPS‐OP] (H-SY[pS]GYS-OH)
stability of phosphate/phosphonate group in the presence of ALP: completely hydrolyzed
